Assays:
Assay type in all cases: cell-based, Human
[1] = system: CCM2-depleted endothelial cells; test: Ki67 immunofluorescence staining (proliferative marker); settings: 400nM added to siCCM2 ECs; Figure 1E
Method: (§1) Pooled Human Umbilical Vein Endothelial Cells (HUVEC) were obtained from Pelobiotech. Upon reception, HUVEC at P0 were expanded over 2 passages in 100µg/ml collagen 1 (from rat tail, BD) coated flasks in complete EGM-2 medium (Lonza) supplemented with 100 U/ml penicillin and 100 µg/ml streptomycin at 37°C in a 5% CO2 - 3% O2 humidified chamber. HUVEC at passage 3 were transfected twice at 24 h-intervals with 30 nM siRNA and Lipofectamine RNAi max (Life Technologies, ref. 13778-150) according to the manufacturer's instructions in OptiMEM at 37°C in a regular 5% CO2 in a humidified chamber. For double transfections, 30 nM of each siRNA duplexes (Dharmacon smartpool ON-TARGET plus Thermo Scientific) was used: Non-targeting siRNA #1 (ref. D-001810-01), CCM2 siRNA (ref. L-014728-01) and TRPV4 siRNA (ref. L-004195-00).
Transfected HUVEC were seeded at 3x10^4 cells (sparsed, for Ki67 staining) or […] (confluent, for VE-cadherin staining) in 24-well plates on coverslips coated with 10 µg/ml fibronectin (from human plasma, Sigma Aldrich) and incubated overnight (Ki67 experiment) or for 48h (VE-cadherin experiment) in complete EBM-2 medium in presence or absence of the calcium channels inhibitors dissolved in DMSO. […] The percentage of Ki67 positive cells was counted manually out of more than 130 cells total.

[2] = system: CCM2-depleted endothelial cells; test: xCELLigence proliferation assay (RTCA impedance); settings: 400nM added to siCCM2 ECs; RTCA xCelligence impedance over 24h; Figure 1B
Method: as §1
Proliferation assay was performed using the xCELLigence Real-Time Cell Analysis (RTCA) DP instrument in combination with E-plate 16 (ACEA Biosciences) coated with 100µL of 100µg/mL collagen 1 (from rat tail) for 30 min at 37°C and washed 2 times with PBS 1X. 50 µL of complete EBM-2 medium was added and baseline without cells was made with RTCA software. 2.5x103 transfected HUVEC (4 wells per condition) were seeded 24h after the second round of transfection in 50µL of complete EBM-2-medium. […] Impedance measurements were recorded every 5 min during 24h. […]

[3] = system: CCM2-depleted endothelial cells; test: Gelatin degradation assay (ECM degradation); settings: 800 nM; siCCM2 HUVEC; Figure 3B
Method: Pooled Human Umbilical Vein Endothelial Cells (HUVEC) were obtained from Pelobiotech. Upon reception, HUVEC at P0 were expanded over 2 passages in 100µg/ml collagen 1 (from rat tail, BD) coated flasks in complete EGM-2 medium (Lonza) supplemented with 100 U/ml penicillin and 100 µg/ml streptomycin at 37°C in a 5% CO2 - 3% O2 humidified chamber. HUVEC at passage 3 were transfected twice at 24 h-intervals with 30 nM siRNA and Lipofectamine RNAi max (Life Technologies, ref. 13778-150) according to the manufacturer's instructions in OptiMEM at 37°C in a regular 5% CO2 in a humidified chamber. […]
Coverslips in 24 well-plates were coated with gelatin-Alexa488 dye as previously described (70). siCT and siCCM2 HUVEC were seeded 24h after the second siRNA transfection at 3x10^4/well in OptiMEM medium in presence or absence of the calcium channels inhibitors overnight at 37°C in a 5% CO2 incubator. […] For a quantitative analysis of the degradative skill of siRNA transfected cells, 10 images per condition were randomly acquired and were converted to binary images using B&W thresholding on Imaged. The total area of the black zones corresponding to the total area of degradation of the fluorescent gelatin was measured.

O=C(NC1(c2ccccc2)CC1)c1c(CN2CCC(N3CCCCC3)CC2)c(-c2cccc(C(F)(F)F)c2)nc2cc(Br)ccc12 [GSK2193874, 3-([1,4'-Bipiperidin]-1'-ylmethyl)-7-bromo-N-(1-phenylcyclopropyl)-2-[3-(trifluoromethyl)phenyl]-4-quinolinecarboxamide]
proliferative marker Ki67 [1]: restoration | proliferation rate [2]: restoration | CCM2-depleted ECs capacity to degrade the ECM such as gelatin [3]: inhibits

Reference: patent EP4520331A1, “PHARMACEUTICAL COMPOSITION COMPRISING TRPV4 INHIBITOR FOR USE IN THE PREVENTION OR TREATMENT OF CEREBRAL CAVERNOUS MALFORMATIONS (CCM)” (Université Grenoble Alpes, priority 2023, dated 2025)
